Common to all, as to experiment: cell-based
Experiment [1] deals with hNav1.5 (Homo sapiens, UniProt Q14524). The following applies: IonWorks Quattro, read-out: IWQ Use Nav1.5. (In general: In patch-clamp work, channel activity is measured electrically.)
Experiment [2] deals with hNav1.7 (Homo sapiens, UniProt Q15858). The format is cell-based.
The target of experiment [3] is hNav1.3 (Homo sapiens, UniProt Q9NY46). As to conditions: IonWorks Quattro, read-out: IWQ Use Nav1.3.
Setting [4] is: IonWorks Quattro, Use, read-out: IWQ Use Nav1.7.

SMILES strings stand for the structures. Read-outs that look alike come from different tables or passages of the source. Positions of bridges follow the written chain, without caps; N, C: chain ends. Non-standard residues stand in square brackets, D forms with d. Residues, ends and D or L forms follow the SMILES beside them. 1Nal = N[C@@H](Cc1cccc2ccccc12)C(=O)O

hNav1.3, sequence (Q9NY46 whole entry, looked up): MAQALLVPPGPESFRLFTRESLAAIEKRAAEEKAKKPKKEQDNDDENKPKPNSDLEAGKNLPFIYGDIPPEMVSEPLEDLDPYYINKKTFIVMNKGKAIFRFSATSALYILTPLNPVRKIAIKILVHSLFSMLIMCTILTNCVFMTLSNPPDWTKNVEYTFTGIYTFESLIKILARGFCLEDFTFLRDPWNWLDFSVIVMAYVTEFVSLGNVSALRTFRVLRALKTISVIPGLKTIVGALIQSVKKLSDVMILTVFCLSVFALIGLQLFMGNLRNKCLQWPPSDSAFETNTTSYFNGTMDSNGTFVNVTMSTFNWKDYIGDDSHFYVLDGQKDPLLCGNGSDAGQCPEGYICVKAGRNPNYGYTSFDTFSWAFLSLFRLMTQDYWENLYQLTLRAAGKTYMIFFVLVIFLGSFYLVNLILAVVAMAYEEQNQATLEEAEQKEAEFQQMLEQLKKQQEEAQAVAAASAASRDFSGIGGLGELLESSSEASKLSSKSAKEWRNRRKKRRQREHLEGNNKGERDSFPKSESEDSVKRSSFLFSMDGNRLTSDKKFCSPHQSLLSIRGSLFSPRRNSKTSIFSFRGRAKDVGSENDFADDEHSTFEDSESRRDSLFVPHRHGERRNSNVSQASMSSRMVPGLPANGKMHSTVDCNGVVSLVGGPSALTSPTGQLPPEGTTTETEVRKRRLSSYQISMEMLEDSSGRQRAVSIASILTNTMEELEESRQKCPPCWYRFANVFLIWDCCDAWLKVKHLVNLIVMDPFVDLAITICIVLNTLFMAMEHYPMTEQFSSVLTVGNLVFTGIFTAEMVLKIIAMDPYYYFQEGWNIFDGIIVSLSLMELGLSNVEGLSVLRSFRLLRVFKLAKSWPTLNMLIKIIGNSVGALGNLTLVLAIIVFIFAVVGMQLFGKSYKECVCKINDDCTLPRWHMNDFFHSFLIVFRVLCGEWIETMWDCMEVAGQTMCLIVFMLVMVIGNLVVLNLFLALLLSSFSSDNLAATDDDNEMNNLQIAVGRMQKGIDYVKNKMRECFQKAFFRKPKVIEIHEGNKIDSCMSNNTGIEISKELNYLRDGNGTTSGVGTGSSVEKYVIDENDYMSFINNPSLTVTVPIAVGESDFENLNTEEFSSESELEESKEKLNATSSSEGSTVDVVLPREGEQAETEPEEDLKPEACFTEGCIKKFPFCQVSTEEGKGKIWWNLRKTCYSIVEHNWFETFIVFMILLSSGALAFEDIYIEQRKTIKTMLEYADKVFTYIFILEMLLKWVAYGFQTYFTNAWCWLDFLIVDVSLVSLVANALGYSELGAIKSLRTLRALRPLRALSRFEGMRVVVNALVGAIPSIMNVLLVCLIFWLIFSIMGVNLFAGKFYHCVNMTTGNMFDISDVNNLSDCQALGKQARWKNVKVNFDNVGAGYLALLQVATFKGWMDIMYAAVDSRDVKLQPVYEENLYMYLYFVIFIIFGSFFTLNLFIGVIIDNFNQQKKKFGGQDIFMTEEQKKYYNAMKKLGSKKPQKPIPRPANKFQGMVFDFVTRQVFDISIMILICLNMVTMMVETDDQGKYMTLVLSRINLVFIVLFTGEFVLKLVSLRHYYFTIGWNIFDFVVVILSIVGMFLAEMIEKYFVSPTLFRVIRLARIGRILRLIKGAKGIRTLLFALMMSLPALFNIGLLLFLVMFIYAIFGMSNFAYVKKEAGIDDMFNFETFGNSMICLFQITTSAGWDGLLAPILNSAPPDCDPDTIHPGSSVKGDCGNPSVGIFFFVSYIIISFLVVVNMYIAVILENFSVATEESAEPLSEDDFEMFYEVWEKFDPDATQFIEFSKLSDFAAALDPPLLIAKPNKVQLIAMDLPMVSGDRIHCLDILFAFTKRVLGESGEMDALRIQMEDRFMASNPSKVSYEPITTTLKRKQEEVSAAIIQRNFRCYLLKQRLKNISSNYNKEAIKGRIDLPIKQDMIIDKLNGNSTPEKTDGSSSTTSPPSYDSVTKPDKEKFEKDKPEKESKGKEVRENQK
hNav1.7, sequence (Q15858 whole entry, looked up): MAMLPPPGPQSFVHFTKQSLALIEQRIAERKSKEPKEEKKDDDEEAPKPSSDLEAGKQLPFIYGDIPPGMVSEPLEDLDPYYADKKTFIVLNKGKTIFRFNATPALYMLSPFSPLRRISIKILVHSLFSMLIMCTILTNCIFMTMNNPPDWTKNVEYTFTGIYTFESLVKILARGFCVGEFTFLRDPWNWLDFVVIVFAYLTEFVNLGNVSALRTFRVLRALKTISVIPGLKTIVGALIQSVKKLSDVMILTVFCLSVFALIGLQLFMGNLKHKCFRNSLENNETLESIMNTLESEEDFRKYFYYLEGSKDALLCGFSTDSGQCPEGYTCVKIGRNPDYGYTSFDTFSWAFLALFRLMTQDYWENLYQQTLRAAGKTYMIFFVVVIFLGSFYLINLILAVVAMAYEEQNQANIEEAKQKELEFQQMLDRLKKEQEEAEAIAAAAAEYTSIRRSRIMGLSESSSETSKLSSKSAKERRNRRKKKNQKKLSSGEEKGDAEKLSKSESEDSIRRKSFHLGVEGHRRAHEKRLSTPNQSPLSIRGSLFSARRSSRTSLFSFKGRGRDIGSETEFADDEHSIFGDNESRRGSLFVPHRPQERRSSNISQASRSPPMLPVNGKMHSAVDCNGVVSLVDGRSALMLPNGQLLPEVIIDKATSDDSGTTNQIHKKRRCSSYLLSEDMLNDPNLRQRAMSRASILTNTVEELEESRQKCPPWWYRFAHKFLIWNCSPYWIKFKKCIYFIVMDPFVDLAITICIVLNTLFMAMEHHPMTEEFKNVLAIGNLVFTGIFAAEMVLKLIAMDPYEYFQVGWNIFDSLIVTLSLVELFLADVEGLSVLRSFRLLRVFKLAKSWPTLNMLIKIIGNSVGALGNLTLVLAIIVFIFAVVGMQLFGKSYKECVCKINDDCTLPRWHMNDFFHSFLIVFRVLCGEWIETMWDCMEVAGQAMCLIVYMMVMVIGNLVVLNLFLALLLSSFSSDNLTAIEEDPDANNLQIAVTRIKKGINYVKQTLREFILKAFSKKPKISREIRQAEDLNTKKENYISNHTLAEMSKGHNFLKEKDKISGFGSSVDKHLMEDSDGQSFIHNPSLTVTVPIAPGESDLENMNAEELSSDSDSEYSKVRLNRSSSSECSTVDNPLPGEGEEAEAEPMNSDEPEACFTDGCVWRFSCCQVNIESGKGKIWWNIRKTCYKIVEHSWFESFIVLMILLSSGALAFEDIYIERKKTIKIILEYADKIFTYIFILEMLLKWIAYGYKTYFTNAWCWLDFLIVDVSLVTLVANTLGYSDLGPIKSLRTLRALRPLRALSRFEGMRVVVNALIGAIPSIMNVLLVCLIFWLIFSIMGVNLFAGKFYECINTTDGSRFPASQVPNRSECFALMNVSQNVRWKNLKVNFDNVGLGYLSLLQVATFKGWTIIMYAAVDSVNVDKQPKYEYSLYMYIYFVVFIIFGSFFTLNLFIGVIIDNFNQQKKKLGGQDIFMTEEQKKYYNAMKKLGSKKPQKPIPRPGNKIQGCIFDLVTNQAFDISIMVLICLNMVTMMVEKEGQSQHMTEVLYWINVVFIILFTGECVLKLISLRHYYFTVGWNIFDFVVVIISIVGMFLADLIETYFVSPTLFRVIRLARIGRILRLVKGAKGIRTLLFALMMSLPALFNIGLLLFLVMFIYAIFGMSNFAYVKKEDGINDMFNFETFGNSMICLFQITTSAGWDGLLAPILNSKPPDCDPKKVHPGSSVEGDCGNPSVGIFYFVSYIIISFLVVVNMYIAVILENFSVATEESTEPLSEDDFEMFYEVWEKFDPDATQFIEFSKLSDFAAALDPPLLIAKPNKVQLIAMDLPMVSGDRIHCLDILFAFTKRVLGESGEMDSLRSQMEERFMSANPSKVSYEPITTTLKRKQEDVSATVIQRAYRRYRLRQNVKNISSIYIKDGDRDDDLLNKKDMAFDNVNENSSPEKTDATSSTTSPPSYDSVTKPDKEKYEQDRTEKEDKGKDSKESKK

As for `CC[C@H](C)[C@@H]1NC(=O)[C@@H]2CSSC[C@@H]3NC(=O)[C@H](C(C)C)NC(=O)[C@H](CC(C)C)NC(=O)[C@H](CC(N)=O)NC(=O)[C@@H]4CCCN4C(=O)[C@H](CCCNC(=N)N)NC(=O)[C@H](CSSC[C@H](NC(=O)[C@@H](N)CC(=O)O)C(=O)N[C@@H](CC(C)C)C(=O)NCC(=O)N[C@@H](Cc4ccccc4)C(=O)N[C@@H](CCSC)C(=O)N[C@@H](CCCNC(=N)N)C(=O)N[C@@H](CCCCN)C(=O)N2)NC(=O)[C@H](CSSC[C@@H](C(=O)N[C@@H](CCCCN)C(=O)N[C@@H](Cc2ccc(O)cc2)C(=O)N[C@H](C(=O)N[C@@H](Cc2ccccc2)C(N)=O)C(C)C)NC(=O)[C@H](Cc2c[nH]c4ccccc24)NC(=O)[C@H](CCCCN)NC(=O)[C@H](Cc2c[nH]cn2)NC(=O)[C@H]([C@@H](C)O)NC(=O)[C@H](CCCNC(=N)N)NC(=O)[C@H](CO)NC3=O)NC(=O)[C@H](CCC(N)=O)NC(=O)[C@H](CC(=O)O)NC(=O)[C@H](CC(N)=O)NC(=O)[C@H](CC(=O)O)NC(=O)[C@@H]2CCCN2C1=O` [compound 92] (H-DCLGFMRKCIPDNDQCCRPNLVCSRTHKWCKYVF-NH2; disulfide 2-17, 9-23, 16-30), the IC50 in experiment [1] (Use) was determined as 7600 nM; in experiment [2] (setting [4]), 130 nM; in experiment [3] (Use), 120 nM.
Regarding `CC[C@H](C)[C@@H]1NC(=O)[C@@H]2CSSC[C@@H]3NC(=O)[C@H](C(C)C)NC(=O)[C@H](CC(C)C)NC(=O)[C@H](CC(N)=O)NC(=O)[C@@H]4CCCN4C(=O)[C@H](CCCNC(=N)N)NC(=O)[C@H](CSSC[C@H](NC(=O)[C@@H](N)CC(=O)O)C(=O)N[C@@H](CC(C)C)C(=O)NCC(=O)N[C@@H](Cc4ccccc4)C(=O)N[C@@H](CCSC)C(=O)N[C@@H](CCCNC(=N)N)C(=O)N[C@@H](CCCCN)C(=O)N2)NC(=O)[C@H](CSSC[C@@H](C(=O)N[C@@H](CCCCN)C(=O)N[C@@H](Cc2ccc(O)cc2)C(=O)N[C@H](C(=O)N[C@@H](Cc2ccccc2)C(N)=O)C(C)C)NC(=O)[C@H](Cc2c[nH]c4ccccc24)NC(=O)[C@H](CCCCN)NC(=O)[C@H]([C@@H](C)O)NC(=O)[C@H](CCCCN)NC(=O)[C@H](CCCNC(=N)N)NC(=O)[C@H](CO)NC3=O)NC(=O)[C@H](CCCCN)NC(=O)[C@H](CC(=O)O)NC(=O)[C@H](CC(N)=O)NC(=O)[C@H](CC(=O)O)NC(=O)[C@@H]2CCCN2C1=O` [compound 94] (H-DCLGFMRKCIPDNDKCCRPNLVCSRKTKWCKYVF-NH2; disulfide 2-17, 9-23, 16-30), the IC50 was found to be 9290 nM in experiment [1] (Table 22, use, […]); 100 nM in experiment [2] (Table 22, IonWorks Quattro, use, […], read-out: IWQ Use Nav1.7); 50 nM in experiment [3] (Table 22, use, […]).
As to `CC[C@H](C)[C@@H]1NC(=O)[C@@H]2CSSC[C@@H]3NC(=O)[C@H](C(C)C)NC(=O)[C@H](CC(C)C)NC(=O)[C@H](CC(N)=O)NC(=O)[C@@H]4CCCN4C(=O)[C@H](CCCNC(=N)N)NC(=O)[C@H](CSSC[C@H](NC(=O)[C@@H](N)CC(=O)O)C(=O)N[C@@H](CC(C)C)C(=O)NCC(=O)N[C@@H](Cc4ccccc4)C(=O)N[C@@H](CCSC)C(=O)N[C@@H](CCCNC(=N)N)C(=O)N[C@@H](CCCCN)C(=O)N2)NC(=O)[C@H](CSSC[C@@H](C(=O)N[C@@H](CCCCN)C(=O)N[C@@H](Cc2ccc(O)cc2)C(=O)N[C@@H](CCC(N)=O)C(=O)N[C@@H](Cc2ccccc2)C(N)=O)NC(=O)[C@H](Cc2c[nH]c4ccccc24)NC(=O)[C@H](CCCCN)NC(=O)[C@H](Cc2c[nH]cn2)NC(=O)[C@H]([C@@H](C)O)NC(=O)[C@H](CCCNC(=N)N)NC(=O)[C@H](CO)NC3=O)NC(=O)[C@H](CCCCN)NC(=O)[C@H](CC(=O)O)NC(=O)[C@H](CC(N)=O)NC(=O)[C@H](CC(=O)O)NC(=O)[C@@H]2CCCN2C1=O` [compound 95] (H-DCLGFMRKCIPDNDKCCRPNLVCSRTHKWCKYQF-NH2; disulfide 2-17, 9-23, 16-30), the IC50 worked out at 10600 nM in experiment [1] (Table 26, use, […]); 120 nM in experiment [2] (Table 26, IonWorks Quattro, use, […], read-out: IWQ Use Nav1.7); 110 nM in experiment [3] (Table 26, use, […]).
For `CC[C@H](C)[C@H](NC(=O)[C@@H](NC(=O)[C@H](Cc1ccc(O)cc1)NC(=O)[C@H](CCCCN)NC(=O)[C@@H]1CSSC[C@@H]2NC(=O)[C@H](CCCCN)NC(=O)[C@H](CC(=O)O)NC(=O)[C@H](CC(N)=O)NC(=O)[C@H](CC(=O)O)NC(=O)[C@@H]3CCCN3C(=O)[C@H]([C@@H](C)CC)NC(=O)[C@@H]3CSSC[C@H](NC(=O)[C@H](C(C)C)NC(=O)[C@H](CC(C)C)NC(=O)[C@H](CC(N)=O)NC(=O)[C@@H]4CCCN4C(=O)[C@H](CCCNC(=N)N)NC(=O)[C@H](CSSC[C@H](NC(=O)[C@@H](N)CC(=O)O)C(=O)N[C@@H](CC(C)C)C(=O)NCC(=O)N[C@@H](Cc4ccccc4)C(=O)N[C@@H](CCSC)C(=O)N[C@@H](CCCNC(=N)N)C(=O)N[C@@H](CCCCN)C(=O)N3)NC2=O)C(=O)N[C@@H](CO)C(=O)N[C@@H](CCCNC(=N)N)C(=O)N[C@@H]([C@@H](C)O)C(=O)N[C@@H](Cc2c[nH]cn2)C(=O)N[C@@H](CCCCN)C(=O)N[C@@H](Cc2c[nH]c3ccccc23)C(=O)N1)C(C)C)C(N)=O` [compound 96] (H-DCLGFMRKCIPDNDKCCRPNLVCSRTHKWCKYVI-NH2; disulfide 2-17, 9-23, 16-30), the IC50 in experiment [1] (use-dependent, […]) came to 10800 nM; in experiment [2] (IonWorks Quattro, use-dependent, […], read-out: IWQ Use Nav1.7) it was 280 nM; in experiment [3] (use-dependent, […]) it was 280 nM.
Turning to `CC[C@H](C)[C@@H]1NC(=O)[C@@H]2CSSC[C@@H]3NC(=O)[C@H](C(C)C)NC(=O)[C@H](CC(C)C)NC(=O)[C@H](CC(N)=O)NC(=O)[C@@H]4CCCN4C(=O)[C@H](CCCNC(=N)N)NC(=O)[C@H](CSSC[C@H](NC(=O)[C@@H](N)CC(=O)O)C(=O)N[C@@H](CC(C)C)C(=O)NCC(=O)N[C@@H](Cc4ccccc4)C(=O)N[C@@H](CCSC)C(=O)N[C@@H](CCCNC(=N)N)C(=O)N[C@@H](CCCCN)C(=O)N2)NC(=O)[C@H](CSSC[C@@H](C(=O)N[C@@H](CCCCN)C(=O)N[C@@H](CCCCN)C(=O)N[C@H](C(=O)N[C@@H](Cc2cccc4ccccc24)C(=O)N[C@@H](Cc2c[nH]c4ccccc24)C(N)=O)C(C)C)NC(=O)[C@H](Cc2c[nH]c4ccccc24)NC(=O)[C@H](CCCCN)NC(=O)[C@H](Cc2c[nH]cn2)NC(=O)[C@H]([C@@H](C)O)NC(=O)[C@H](CCCNC(=N)N)NC(=O)[C@H](CO)NC3=O)NC(=O)[C@H](CCCCN)NC(=O)[C@H](CC(=O)O)NC(=O)[C@H](CC(N)=O)NC(=O)[C@H](CC(=O)O)NC(=O)[C@@H]2CCCN2C1=O` [compound 99] (H-DCLGFMRKCIPDNDKCCRPNLVCSRTHKWCKKV[1Nal]W-NH2; disulfide 2-17, 9-23, 16-30), the IC50 in experiment [1] (use-dependent block, hNav1.5) was found to be 9140 nM; in experiment [2] (IonWorks Quattro, use-dependent block, hNav1.7, read-out: IWQ Use Nav1.7) it was 110 nM; in experiment [3] (use-dependent block, hNav1.3), 160 nM.
For the compound `CC[C@H](C)[C@@H]1NC(=O)[C@@H]2CSSC[C@@H]3NC(=O)[C@H](C(C)C)NC(=O)[C@H](CC(C)C)NC(=O)[C@H](CC(N)=O)NC(=O)[C@@H]4CCCN4C(=O)[C@H](CCCNC(=N)N)NC(=O)[C@H](CSSC[C@H](NC(=O)[C@@H](N)CC(=O)O)C(=O)N[C@@H](CC(C)C)C(=O)NCC(=O)N[C@@H](Cc4ccccc4)C(=O)N[C@@H](CCSC)C(=O)N[C@@H](CCCNC(=N)N)C(=O)N[C@@H](CCCCN)C(=O)N2)NC(=O)[C@H](CSSC[C@@H](C(=O)N[C@@H](CCCCN)C(=O)N[C@@H](Cc2ccc(O)cc2)C(=O)N[C@H](C(=O)N[C@@H](C)C(N)=O)C(C)C)NC(=O)[C@H](Cc2c[nH]c4ccccc24)NC(=O)[C@H](CCCCN)NC(=O)[C@H](Cc2cnc[nH]2)NC(=O)[C@H]([C@@H](C)O)NC(=O)[C@H](CCCNC(=N)N)NC(=O)[C@H](CO)NC3=O)NC(=O)[C@H](CCCCN)NC(=O)[C@H](CC(=O)O)NC(=O)[C@H](CC(N)=O)NC(=O)[C@H](CC(=O)O)NC(=O)[C@@H]2CCCN2C1=O` [compound 101] (H-DCLGFMRKCIPDNDKCCRPNLVCSRTHKWCKYVA-NH2; disulfide 2-17, 9-23, 16-30), the IC50 was found to be 9330 nM in experiment [1] (use-dependent, […]); 7190 nM in experiment [2]; 4760 nM in experiment [3] (use-dependent, […]).
In the case of `CC[C@H](C)[C@@H]1NC(=O)[C@@H]2CSSC[C@@H]3NC(=O)[C@H](C(C)C)NC(=O)[C@H](CC(C)C)NC(=O)[C@H](CC(N)=O)NC(=O)[C@@H]4CCCN4C(=O)[C@H](CCCNC(=N)N)NC(=O)[C@H](CSSC[C@H](NC(=O)[C@@H](N)CC(=O)O)C(=O)N[C@@H](CC(C)C)C(=O)NCC(=O)N[C@@H](Cc4ccccc4)C(=O)N[C@@H](CCSC)C(=O)N[C@@H](CCCNC(=N)N)C(=O)N[C@@H](CCCCN)C(=O)N2)NC(=O)[C@H](CSSC[C@@H](C(=O)N[C@@H](CCCCN)C(=O)N[C@@H](Cc2ccc(O)cc2)C(=O)N[C@H](C(=O)N[C@@H](Cc2ccccc2)C(N)=O)C(C)C)NC(=O)[C@H](Cc2c[nH]c4ccccc24)NC(=O)[C@H](CCCCN)NC(=O)[C@H](Cc2cnc[nH]2)NC(=O)[C@H]([C@@H](C)O)NC(=O)[C@H](CCCNC(=N)N)NC(=O)[C@H](CO)NC3=O)NC(=O)[C@H](CCCCN)NC(=O)[C@H](CC(=O)O)NC(=O)[C@H](CCCNC(=N)N)NC(=O)[C@H](CC(=O)O)NC(=O)[C@@H]2CCCN2C1=O` [compound 103] (H-DCLGFMRKCIPDRDKCCRPNLVCSRTHKWCKYVF-NH2; disulfide 2-17, 9-23, 16-30), the results for the IC50 in experiment [1] (Use), in experiment [2] (setting [4]) and in experiment [3] (Use) were 16000 nM, 160 nM and 220 nM, respectively.
